A short description of data set [1]: Transfer of pyridoxamine into blood and peritoneal cavity after oral administration to uremic rat models. It counts as in vivo, Sprague-Dawley male rats. The following applies: oral 30 mg/rat/day, 7 days. The text has this: The uremic rat models were produced using 7-week-old (body weight: 300 g or less) Sprague-Dawley male rats (CLEA Japan, Inc.) by the method described in NPL 27 and NPL 28. More specifically, the above rats were first subjected to 1/3 nephrectomy under anesthesia, and then to 1/2 nephrectomy after a week, thereby producing 5/6 nephrectomy rats (rats with kidney subtotal excision). These rats were allowed to freely take a standard diet for experimental rats (containing 1.06% calcium, 0.9% phosphate, and 21% protein; CE2: CLEA Japan, Inc.) and tap water until the eve of slaughter.
The kidney subtotal excision rats with chronic renal failure (uremic rat models) produced in the above manner were separated into two groups (each group: n=3). Distilled water for injection (Otsuka Pharmaceutical Co., Ltd.; here and below) was orally administered compulsorily to Group 1 (control group) once a day, while a pyridoxamine salt aqueous solution prepared by dissolving 30 mg of pyridoxamine dihydrochloride (Sigma; here and below) in 2 mL of distilled water for injection was orally administered compulsorily to Group 2 (pyridoxamine salt orally administered group) once a day. On the 6th day of administration, after distilled water for injection and the pyridoxamine salt aqueous solution were orally administered, respectively, to Groups 1 and 2, 20 ml of a peritoneal dialysis fluid (pH 4.5 to 5.5) (trade name: Dianeal (registered trademark) PD-4 4.25; Baxter Limited) was injected intraperitoneally to both groups.
Subsequently, on the 7th day of administration, as normal, distilled water for injection was orally administered compulsorily to Group 1, and the pyridoxamine salt aqueous solution was orally administered compulsorily to Group 2. […]
When the quantitative analysis of pyridoxamine and dicarbonyl compounds (3-deoxyglucosone) in the samples was performed by liquid chromatography (HPLC), the above frozen test samples (serum and intraperitoneal fluid) were used after natural thawing at room temperature.
First, 50 μL of each test sample (serum and intraperitoneal fluid) was taken in a test tube. […] Subsequently, the mixture was subjected to centrifugation at 12,000 rpm at 4° C. for 10 minutes to precipitate proteins, and the supernatant was then collected for use as a sample for pyridoxamine quantitative analysis by HPLC.
The quantitative analysis of pyridoxamine was carried out under the HPLC conditions described in Experimental Example 1 (2). The quantitative analysis was performed using a standard calibration curve previously prepared by measurement under the above HPLC conditions using standard solutions of pyridoxamine of known concentrations.

Data set [2] deals with dicarbonyl compounds (3-deoxyglucosone) in the intraperitoneal fluid. As to the kind of experiment: 3-deoxyglucosone in intraperitoneal fluid of uremic rat models, acid peritoneal dialysis fluid (Experimental Example 2). The settings on record: oral 30 mg/rat/day, 7 days. It counts as in vivo, Sprague-Dawley male rats. The text has this:
The uremic rat models were produced using 7-week-old (body weight: 300 g or less) Sprague-Dawley male rats (CLEA Japan, Inc.) by the method described in NPL 27 and NPL 28. More specifically, the above rats were first subjected to 1/3 nephrectomy under anesthesia, and then to 1/2 nephrectomy after a week, thereby producing 5/6 nephrectomy rats (rats with kidney subtotal excision). These rats were allowed to freely take a standard diet for experimental rats (containing 1.06% calcium, 0.9% phosphate, and 21% protein; CE2: CLEA Japan, Inc.) and tap water until the eve of slaughter. […]
When the quantitative analysis of pyridoxamine and dicarbonyl compounds (3-deoxyglucosone) in the samples was performed by liquid chromatography (HPLC), the above frozen test samples (serum and intraperitoneal fluid) were used after natural thawing at room temperature. […]
The quantitative analysis of dicarbonyl compounds (3-deoxyglucosone) was performed by reversed-phase high-performance liquid chromatography (HPLC) under the following conditions. The quantitative analysis was performed using a standard calibration curve previously prepared by measurement under the following HPLC conditions using standard solutions of 3-deoxyglucosone of known concentrations. […]
Detection: UV detection of absorbance at a wavelength of 315 nm (UV detector: Shimadzu Corporation)

The mark [3] stands for this setting: within an hour after last administration, Dianeal PD-4 4.25 i.p. on 6th day.

For `Cc1ncc(CO)c(CN)c1O.Cl.Cl` [pyridoxamine dihydrochloride, Pyridoxamine dihydrochloride], the “Pyridoxamine amount in intraperitoneal fluid” value in data set [1] (amount in 20.8 ml of collected intraperitoneal fluid) is 321 µg. Besides, the “pyridoxamine concentration in the intraperitoneal cavity, Group 2 relative to Group 1 (control)” value in data set [1] is reported as no less than 65 times. For the same compound, in data set [1] (setting [3]), the “Pyridoxamine concentration in intraperitoneal fluid” value stood at 14.7 µg/mL and the “Pyridoxamine concentration in serum” value turned out to be 13.8 µg/mL. Also, in data set [2] (acid peritoneal dialysis fluid), the “3-deoxyglucosone concentration in the peritoneal cavity relative to control group” value is recorded as “less than one-third”. Moreover, the “3-deoxyglucosone concentration in intraperitoneal fluid” value in data set [2] (acid peritoneal dialysis fluid (pH 4.5 to 5.5) Dianeal PD-4 4.25, 20 ml i.p., control group 30.8) was 9.9 µg/mL.
